Data reported in patent publication US20250296942A1, “Phosphonate-Based Coordination Complexes and Methods of Preparation and Use Thereof” (University of Puerto Rico, priority 2021, published 2025).

Experiments:
[1] = system: human osteoblast hFOB 1.19 cell line; assay: AlamarBlue cytotoxicity, BPBPA series, hFOB 1.19; assay type: cell-based; settings: for IC50: Homo sapiens, Osteoblast
Procedure: (§1) Cell culture methods. MCF-7, MDA-MB-231, and hFOB 1.19 cell lines were incubated employing DMEM (37° C.) and DMEM: F12 (34° C.) medium, respectively, in a 5% CO2. Cell lines were supplemented using 10% FBS and 1% Pen-Strep and medium exchange was performed twice a week. Cell passages were carried out at 80% confluency.
(§2) Cell-based assays. Cell lines were seeded in 96 well plates at a density of 5×10^3 cells/mL, cells were incubated for 24 h before treatment. Both cell lines were treated with 100 μL of BPBPA (0-400 μM), LET (0-200 μM), unloaded and loaded nano-Ca@BPBPA (0-50 μM). All cell-based assays were performed for 24, 48, and 72 h of treatment. Control groups were treated with media (DMEM or DMEM: F12) supplemented with 1% Pen-Strep. Then, the media was removed and replaced with 100 μL of 10% AlamarBlue® solution. The 96 well plates were incubated for 4 h before measurements. Then, the fluorescence was assessed at 560 nm of excitation and λmax 590 nm of emission. The cell viability (%) was evaluated by contrasting the percentage of live cells of the control groups with the cells treated with BPBPA, LET, unloaded and loaded nano-Ca@BPBPA. The half-maximal inhibitory concentration (IC50) was determined for BPBPA and letrozole employing the dose-response curves (% cell live vs. concentration). The relative cell live (% RCL) was assessed for the unloaded and loaded nano-Ca@BPBPA, utilizing LET as a control group. The IC50 and % RCL were plotted using the GraphPad Prism software vs. 9.3.0.
(§3) The cytotoxicity of BPBPA (control), LET (control), nano-Ca@BPBPA (control), and drug-loaded nano-Ca@BPBPA (experimental) was investigated employing the human breast cancer, MCF-7 and MDA-MB-231, and the human osteoblast, hFOB 1.19, cell lines. The human MCF-7 cell line represents an ER-positive breast cancer model with estrogen, progesterone, and glucocorticoid receptors.^1 While, the human MDA-MB-231 cells correspond to a model of ER-negative breast cancer. Both selected cancer cell lines can be implicated in the development and progress of bone metastases in patients.^40,41 The human fetal hFOB 1.19 cells represent a homogeneous osteoblast-like (non-cancerous) model commonly employed to assess osteoblast differentiation.^42 The cytotoxicity of these materials was evaluated by determining the IC50 and % RCL. […] Similar results were found for MDA-MB-231 and hFOB 1.19 cell lines treated with LET (IC50 >200 μM) at the same time points (Supporting Information).
Cell culture methods. MCF-7 and MDA-MB-231 were incubated employing DMEM media at 37° C. in 5% CO2. The hFOB 1.19 cell lines were incubated using DMEM: F12 at 34° C. in 5% CO2. […]
AlamarBlue@assay. […] Then, the fluorescence was assessed at 560 nm of excitation and λmax 590 nm of emission.

[2] = system: human breast cancer MCF-7 cell line; assay: AlamarBlue cytotoxicity, BPBPA series, MCF-7; assay type: cell-based
Procedure: as §1, §2, §3
Cell culture methods. MCF-7 and MDA-MB-231 were incubated employing DMEM media at 37° C. in 5% CO2. The hFOB 1.19 cell lines were incubated using DMEM: F12 at 34° C. in 5% CO2. Cell lines were supplemented using 10% FBS and 1% Pen-Strep. The media was exchanged twice per week. Cell passages were carried out at 80% confluency.
Seeding. Cell lines were seeded in 96 well plates at a density of […] cells/mL; cells were incubated for 24 h before each treatment.
Treatment. Cell lines were treated with 100 μL of BPBPA (0-400 μM), LET (0-200 μM), unloaded and loaded nano-Ca@BPBPA (0.5-50 μM). Control groups were treated with media (DMEM or DMEM: F12) supplemented with 1% Pen-Strep. All cell-based assays were performed after 24, 48, and 72 h of treatment and in triplicate.
AlamarBlue@assay. To determine the cell viability, the media was removed and replaced with 100 μL of 10% AlamarBlue® solution. The 96 well plates were incubated for 4 h before measurements. Then, the fluorescence was assessed at 560 nm of excitation and λmax 590 nm of emission.

[3] = FaSSGF pH 1.60

Structure (SMILES)	% RCL ([1]; 12.5 μM, 72 h) [%]	IC50 ([1]; 24 h) [µM]	IC50 ([1]; 48 h) [µM]	IC50 ([1]; 72 h) [µM]	% RCL ([2]; 0.5 μM, 24 h) [%]	% RCL ([2]; 0.5 μM, 48 h) [%]	% RCL ([2]; 0.5 μM, 72 h) [%]	% RCL ([2]; 1.6 μM, 72 h) [%]	% RCL ([2]; 3.1 μM, 24 h) [%]	% RCL ([2]; 3.1 μM, 48 h) [%]	% RCL ([2]; 3.1 μM, 72 h) [%]	% RCL ([2]; 6.3 μM, 24 h) [%]	% RCL ([2]; 6.3 μM, 72 h) [%]	% RCL ([2]; 12.5 μM, 72 h) [%]	IC50 ([2]; Homo sapiens, MCF7, 72 h) [µM]	time to reach maximum dissolution [3] [min]
N#Cc1ccc(C(c2ccc(C#N)cc2)n2cncn2)cc1 [LET, letrozole]	100±1	> 200	> 200	> 200	~100	~100	88±5	81	99±2	86±3	78±1	99±1	75±3	70±1	~20	–
O=P(O)(O)C(O)(Cc1cccnc1)P(=O)(O)O [RISE, Monosodium risedronate hemipentahydrate]	–	–	–	–	–	–	–	–	–	–	–	–	–	–	–	1
